Legend:
[1] = target: T1, lipase enzyme (Thermomyces lanuginosus, UniProt O59952, N255R/T253R); test: Washing test: total hydrolysis of rapeseed oil on a polyester swatch by lipase-containing washing liquor, free oleic acid quantified by HPLC; format: biochemical; details: about 100 ppm by weight surfactant, lipase concentrate about 0.2 g/l, pH about 9.6, about 50° C., water hardness 2 fH
T1 construct: purchased Novozymes LIPEX 100 L
Method: The total hydrolysis of rapeseed oil in a wash process was tested with washing liquors that were always comprising the same concentration of a lipase enzyme concentrate. A blank test was performed without any added surfactant. This blank test served as the reference with which could be compared the other results obtained with the same washing liquor samples into which one of a number of different non-ionic surfactants were added.
In the experiments, the lipase concentrate was always present in a concentration of about 0.2 gram of the concentrate per litre of total liquor.
The washing tests were performed at a temperature of about 50° C. The water in the formulations was demineralised water obtained by reverse osmosis (RO).
Different washing liquors were prepared containing about 100 ppm by weight of a selected surfactant, to be compared with a blank liquor containing only the lipase enzyme concentrate and no surfactants.
For each liquor was tested the appearance of free oleic acid generated from the hydrolysis of a standard amount of rapeseed oil with which the liquor was brought in contact. Monitored by High Performance Liquid Chromatography (HPLC) was the quantitative release of free oleic acid (C18:1 fatty acid) in the washing liquor and/or present on the textile, as explained as part of the protocols below. Because oleic acid is the main fatty acid in the triglycerides of rapeseed oil, the generation of this acid as free fatty acid it is an excellent quantitative marker for the hydrolysis of rapeseed oil, in this context thus also for the activity of the lipase enzyme.
A series of tests were performed using water having a hardness of 2 fH. […] For each surfactant choice 2 duplicate samples were tested, except for Sample J (3 duplicates) and Sample K (only 1 sample tested). […] Also shown for each bar with a surfactant is an error bar showing the difference between the lowest and the highest of the duplicates.
The washing tests consisted of contacting at 50° C. a washing liquor containing the selected surfactant together with 0.2 grams per litre of the lipase enzyme concentrate and having a pH of 9.6 with a polyester swatch type W30-A (PES W30-A textile swatch obtained from the company Center For Testmaterials BV (NL)) that has been pre-treated with an amount of rapeseed oil such that the textile swatch contained about 1.5 grams of rapeseed oil on a total weight of slightly over 8 grams of pre-treated swatch.
The pre-treatment consisting of distributing a generous amount of rapeseed oil over the swatch by means of a paint roller. After applying the rapeseed oil onto the swatch, the impregnated swatch was left to dry for 48 hours between two layers of textile for assuring saturation and for absorbing the excess, after which the swatch was weighed on an analytical balance. The difference with the weight of the swatch before applying the rapeseed oil provides the amount of rapeseed oil that was present on the swatch.
In a 600 ml beaker is introduced 500 grams of the stock solution that was prepared in step 2, and this is brought up to a temperature of […] under stirring by means of a mixer submerged close to the bottom of the beaker at about 200 rpm. To this stock solution is then added 100 microliter (“μl”) of the concentrate of the lipase enzyme. Into this warm solution is then introduced the textile (i.e. the pre-treated PES swatch) to be tested, and the time counting of 10 minutes is started. Where a surfactant should be included, 50 milligram thereof is added into the beaker prior to introducing the lipase enzyme and of the textile.
After the 10 minutes contacting time provided in part 1, about 30 grams of the wash water (or wash liquor) is introduced into the 250 ml beaker containing the buffer solution and the formic acid. The formic acid serves to inactivate the lipase enzyme, so that the reaction is stopped. The total weight of the beaker content is noted and should be ±35 grams.
The dried textile is first weighed. […]

[2] = target: T1, lipase enzyme; test: as above; format: biochemical; details: Example 5, surfactant concentration series

T1 sequence (O59952 23-291 T253R/N255R): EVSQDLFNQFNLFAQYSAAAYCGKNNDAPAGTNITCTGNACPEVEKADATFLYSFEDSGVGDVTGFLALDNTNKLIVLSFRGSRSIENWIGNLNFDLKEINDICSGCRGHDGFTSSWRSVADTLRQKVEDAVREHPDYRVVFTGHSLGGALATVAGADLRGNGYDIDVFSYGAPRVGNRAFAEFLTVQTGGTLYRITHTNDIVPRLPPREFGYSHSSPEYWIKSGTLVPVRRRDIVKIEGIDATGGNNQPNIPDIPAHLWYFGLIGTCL

5EO-C13-C15 [M]
effect of the surfactant on lipase activity in the washing liquor (in words, FIG. 1) [1]: relatively benign

5EO-isoC13
effect of the surfactant on lipase activity in the washing liquor (in words, FIG. 1) [1]: not better than the conventional LES surfactant | surfactant concentration at which the suppressing activity already becomes noticeable [2]: 10 ppm by weight | surfactant concentration until which the suppressing effect further grows (about the same up to 250 ppm by weight) [2]: about 100 ppm by weight

7EO-C13-15 [N]
effect of the surfactant on lipase activity in the washing liquor (in words, FIG. 1) [1]: much larger depressing effect

7EO-isoC13 [F]
effect of the surfactant on lipase activity in the washing liquor (in words, FIG. 1) [1]: not better than the conventional LES surfactant

9EO-isoC13 [G]
effect of the surfactant on lipase activity in the washing liquor (in words, FIG. 1) [1]: not better than the conventional LES surfactant

10EO-isoC13 [H]
effect of the surfactant on lipase activity in the washing liquor (in words, FIG. 1) [1]: not better than the conventional LES surfactant

C8-C10 APG-DP of 1.7 [Sample K]
effect of the surfactant on lipase activity in the washing liquor (in words, FIG. 1) [1]: much lower depressing effect

C8-C10 alkyl polyglucoside (APG) with an average degree of polymerisation (DP) of 1.5
effect of the surfactant on lipase activity in the washing liquor (in words, FIG. 1) [1]: much lower depressing effect

C8-C16 APG-DP of 1.5 [Sample J]
effect of the surfactant on lipase activity in the washing liquor (in words, FIG. 1) [1]: much lower depressing effect

C9-C11 fatty alcohol alkoxylated with an average ethoxylation degree of about 6 and an average propoxylation degree of about 4 [Sample O]
effect of the surfactant on lipase activity in the washing liquor (in words, FIG. 1) [1]: worse than the LES reference

C12-C14 amine oxide [P]
effect of the surfactant on lipase activity in the washing liquor (in words, FIG. 1) [1]: significant boost

Linear Alkyl Benzene Sulphonate [Sample B]
relative lipase activity relative to the blank liquor (A) set at 100% ([1]; 10 minute washing test): 12%

a mixture of linear C13-C15 alcohol that has been ethoxylated to an average degree of about 3
effect of the surfactant on lipase activity in the washing liquor (in words, FIG. 1) [1]: relatively benign

isotridecyl alcohol ethoxylated to an average degree of ethoxylation of about 3
effect of the surfactant on lipase activity in the washing liquor (in words, FIG. 1) [1]: not better than the conventional LES surfactant

From patent US20240318102A1, “IMPROVED ENZYME-CONTAINING ADDITIVE AND DETERGENT LIQUOR FORMULATIONS” (priority 2021, published 2024)
